Reference: patent US20200270216A1, “COMPOSITIONS AND METHODS FOR INHIBITING N-SMASE2” (The Regents of the University of California, priority 2017, published 2020)

Columns and labels:
Format in all cases: cell-based
[1] = test system: P2-seeded tau biosensor cells; assay: EV purification and characterization (immunoblot of exosome markers, nanoparticle tracking analysis); conditions: 50 μM, 48 hours, nanoparticle tracking analysis
From the text: Extracellular vesicles (EVs) were purified from the cell culture medium using Exo-Quick-TC exosome purification kit (SBI, EXOTC10A-1) according to the manufacturing instructions. Immunoblot analysis of the EV fractions was done by 10-20% Tris-Glycine gel in non-reduced conditions, transferred to PVDF membrane and probed with antibodies against CD63 (ThermoFisher, 10628D), followed by HRP-conjugated secondary antibodies. Chemiluminescent signals were obtained with Super Signal West Femto substrate (Thermo Scientific Pierce 34,095) and detected using a BioSpectrum 600 imaging system and quantified using VisionWorks Version 6.6A software (UVP; Upland, Calif.). […] Inhibition of nSMase2 activity in cell extracts of confluent tau biosensors was confirmed by nSMase2 activity assay analogous to the one described in Example 2.
Our analysis confirmed that nSMase2 inhibitors suppress release of EVs from P2-seeded tau biosensor cells. […] EV samples purified from the same number of donor cells were analyzed per each group. Purified EVs were imaged by transmission electron microscopy (FIG. 5C). Size distribution of particles in the samples were assessed by nanoparticle tracking analysis (FIG. 5D). WB analysis for exosome markers also confirmed decrease in the exosome-specific marker expression (FIG. 5E).
Donor cells were grown in medium with exosome-depleted FBS (ThermoFisher, A2720803) for 48 hours with or without compounds, cell culture medium was collected and EVs purified using ExoQuick-TC kit (SBI biosciences). For quality control, small amounts of purified EVs were fixed on a copper mesh in glutaraldehyde/paraformaldehyde solution, stained with 2% uranyl acetate solution and imaged on a JEOL 100CX electron microscope at 29,000 times magnification. […] Chemiluminescent signals were obtained with Super Signal West Femto substrate (Thermo Scientific Pierce 34095) and detected using a BioSpectrum 600 imaging system and quantified using VisionWorks Version 6.6A software (UVP; Upland, Calif.).

[2] = test system: HEK293T Tau RD P301S FRET biosensor cells; assay: D+R functional assay: tau seed transfer from P2-seeded donor cells to DiD-labeled recipient cells; conditions: D+R model, flow cytometry (FIG. 4C)
Protocol: The compounds disclosed herein were further evaluated in the functional assays (“D+R approach”). The assays were based on the use of two cell populations—donor cells (D) and recipient cells (R). Recipients express a specific signal upon accumulation of protein aggregates (for example, FRET signal). The D+R approach can be divided into four steps (FIG. 4A).
In step 1, donor and recipient cells were plated in separation and protein aggregation is induced in the donor cells by using tissue-derived or synthetic proteopathic seeds (“seeding”) or by chemical and/or genetic methods. In step 2, either donor cells or recipient cells were labeled with a lipophilic dye (or by other cell labeling technology) in order to be able to distinguish between donor and recipients cells after trypsinization and re-plating of the donor and recipient cells together in step 3 (R+D). Alternatively, donor and recipient cells were physically divided by a permeable support (for example, Transwell). In any scenario, the cells were connected through the media and they grow for 24-60 hours with or without addition of pre-selected compounds. Efficiency of proteopathic seed transmission from donor cells to recipient cells can be analyzed using microscopy, flow cytometry, or imaging flow cytometry. […] Treatment of the tau biosensor cells with tau seeds lead to RD aggregation, as a result, CFP and YFP molecules come into close proximity and a FRET signal can be generated in the CFP/YFP pair upon illumination. The far-red fluorescent, lipophilic carbocyanine dye, DiD, was used for labeling recipient cells. This dye allowed for distinguishing between the DiD-negative donor and the DiD positive recipient cells without interference with the CFP/YFP FRET signal. The representative images of DiD-negative FRETpositive donor cell seeded with P2-derived tau seeds), DiD-positive FRET-negative recipient cell (DiD-R), and DiD positive FRET-positive recipient cell, which were growing in the presence of P2-D (DiD-R/R+D) are presented at the FIG. 4B. […]

[3] = test system: HEK293T Tau RD P301S FRET biosensor cells; assay: EV-mediated tau transfer assay
Protocol: For EV (extracellular vesicles)-mediated tau transfer assay, donor cells, transduced with AD-brain derived synaptosomal extracts (P2) or synthetic K18 seeds, were cultured for 48 hours in exosome-free medium with or without indicated concentration of tested compounds or DMSO for control, then medium was collected and EVs were purified using Exo-Quick-TC exosome purification kit (SBI, EXOTC10A-1) according to the manufacturing instructions. Naive recipient cells were plated at density 30,000 cells per well (96-well plates), grown for 12 hour in regular medium and then medium was exchanged to exosome-depleted medium, contained exosomes purified from donor cells (each well of recipients received amount of exosomes purified from one well of donor cells). Recipient cells were cultured in the presence of donor cell exosomes for 60 hrs. EV-mediated transfer assay scheme is presented at the FIG. 5A (right).
HEK293T Tau RD P301S FRET biosensor cells were growing in the Dulbecco's Modified Eagle's medium (DMEM) with higher glucose, 10% FBS, and 1% Penicillin-streptomycin at 37° C./5% CO2. Cells were plated in 10-sm dishes (3 million cells per dish in the regular medium) and grown for 12 hrs. Cells assigned to be donors were transduced with pulled synaptosomal (P2) extracts from AD cases using lipofectamine 2000, according to the published literature with minor modifications. We used 35 μg of pulled AD or control (NL) material per one 10-sm dish (TableS1). Defrosted P2 extracts were sonicated in water bath sonicator for 10 minutes, and diluted with Opti-MEM serum reduced medium to the final volume 200 μL per 10-sm dish. In a separate tube lipofectamine 2000 were combined with Opti-MEM medium, based on 25 μl of lipofectamine and 175 μL OptiMEM medium per each 10-sm dish, and incubated for 10 minutes at room temperature (RT). Each P2 or NL extract mix (200 μl) and prepared lipofectamine 2000 mix (200 μl) were combined and incubated for 20 min at RT. Each 10-sm dish with cell received 400 μl of the final liposomes in the total volume of medium 5 ml per dish. Cultures treated with equal amount of empty liposomes were used as an additional control group. Cells were incubated with liposomes for 20 hrs.
For “D+R” assay recipient cells were labeled with 1,1′-Dioctadecyl-3,3,3′,3′-tetramethylindodicarbocyanine (DiD) according to manufacturer's protocol (ThermoFisher V22887) on day 2. On day 3, donor cells were trypsinized (0.05% Trypsin/EDTA), washed with fresh exosome-free medium contained 10% of exosome-depleted FBS (ThermoFisher, A2720803). DiD-labeled recipient cells were also trypsinized and washed in exosome-free medium. […] FRET signal was detected using LSRII flow cytometer (BD biosciences). […]

O=C(/C=C/c1ccc(/C=C/C(=O)Nc2ccc(C3=NCCN3)cc2)cc1)Nc1ccc(C2=NCCN2)cc1 [GW4869]
release of EVs from P2-seeded donor cells [1]: released less EVs
tau seed transmission from donor cells to recipient cells [2]: restrained tau seed transmission from the donor cells to the recipient cells in a dose-dependent manner
EV-mediated transfer of tau to recipient cells ([3]; P2-seeded donor cells treated at 50 μM, 48 hours): decrease
reduction of EV-mediated transfer of tau seeds to naive recipient cells ([3]; inhibitor treatment of donor cells): 2.6 times
